We go through 14 molecules from paper PMC9229991, “Development of Reduced Peptide Bond Pseudopeptide Michael Acceptors for the Treatment of Human African Trypanosomiasis” (Molecules, 2022).

One series addresses T1, rhodesain (Trypanosoma brucei rhodesiense, UniProt Q95PM0).
T1 construct: made in house
Put plainly: Rhodesain fluorogenic enzyme assay (Cbz-Phe-Arg-AMC substrate). It counts as biochemical, T. b. rhodesiense. As to conditions: for Rhodesain kinac: pH 5.5, room temperature; for Rhodesain k2nd: k2nd = kinact/Ki; for inhibition at 100 µM: preliminary screening at 100 µM, read-out: Rhodesain % of inhibition at screening concentration. The method, then: All molecules were tested towards rhodesain utilizing fluorogenic assays in the presence of Cbz-Phe-Arg-AMC as substrate. […] Firstly, all the molecules were preliminarily screened at 100 µM (Figure 1A), and DMSO and E-64 were employed as the negative and positive control, respectively. Since SPR10–SPR19 passed the initial screening (% of inhibition > 80%), they were properly diluted, in accordance with what is reported in the literature.
Rhodesain was recombinantly expressed as previously described and Cbz-Phe-Arg-AMC (10 µM) was used as the fluorogenic substrate. The rhodesain-mediated hydrolysis released the fluorescent portion AMC, and fluorescence was measured at room temperature over a period of 30 min, using an Infinite 200 PRO microplate reader, and excitation (380 nm) and emission ([…]) filters were employed. The assay buffer was composed of 50 mM sodium acetate, 5 mM EDTA, 200 mM NaCl, and 0.005% Brij 35 with a pH equal to 5.5. Similarly, the enzyme buffer contained the same chemicals as the assay, with the exception of Brij, which was replaced by 1,4-dithiothreitol (DTT). All the SPR derivatives were solubilized in DMSO, which was also used as the negative control. E-64 protease inhibitor [76] was employed as the positive control. […] Each independent assay was performed twice and in duplicate, using 96 well-plates in a total volume of […]. The first order inactivation rate constants (kobs) were determined by means of nonlinear regression analysis of the progress curves (fluorescence (F) vs. time), and the equation F = A (1 − exp(−kobst)) + B was used. The obtained kobs values were fitted vs. the concentrations of tested inhibitors, and the equation kobs = kinact [I]/(Kiapp + [I]) provided the Kiapp and kinact values. Ki values were obtained using the equation Ki = Kiapp/(1 + [S]/Km), where Km is equal to 0.9 µM [77]. Grafit software was used for the nonlinear regression analysis to calculate kinact and Ki. The second-order rate constants k2nd were directly determined as k2nd = kinact/Ki.

Series [1] deals with human Cathepsin L (hCatL) (Homo sapiens, UniProt P07711). The experiment in a line: hCatL fluorogenic enzyme assay (selectivity). It counts as biochemical. The following applies: for inhibition at 100 µM: screening concentration 100 µM; for Ki: Km 6.5 µM. The protocol:
In order to evaluate the selectivity towards the protozoan cysteine protease, all the new Michael acceptors were assayed against human Cathepsin L (hCatL), which represents the homologous protease of rhodesain in humans.
Similarly to rhodesain, the activity towards hCatL was evaluated as reported in the literature. The biological evaluation towards hCatL was performed using the same buffers, reader, fluorogenic substrate, and positive and negative controls as described above for rhodesain, and the preliminary screening was performed at 100 µM. In this case too, each independent assay was performed twice and in duplicate. Differently from rhodesain, Km is equal to 6.5 µM [77].

In the next series the test system is L-6 rat myoblast cells. Also on record: method as in PMID 21200426. As to conditions: cytotoxicity; read-out: IC50 towards L-6 rat myoblast cells; cited from earlier work.
Another series has as its system HEK293 cells. Put plainly: Cytotoxicity assay, resazurin. It counts as cell-based. As to conditions: 24 h. The method, then:
HEK293 cells were cultured in high-glucose DMEM medium with L-glutamine, supplemented with 10% FCS, 20 U/mL penicillin, and 20 µg/mL streptomycin, at 37 °C and 5% CO2. For the cytotoxicity assay, the cells were seeded in 400 µL at 60,000 cells per well of poly-lysine-coated 48-well plates, and incubated for 24 h at 37 °C. Compound stocks were diluted in DMSO in nine consecutive 1:2 steps, resulting in a set of ten dilutions with concentrations from 7 mM to […]. From each dilution, 4 µL were added to the cells in the 48-well plates, in two separate triplicates. Addition of only DMSO served as control. The plates containing cells plus compound dilutions were incubated for 21 h at 37 °C. Subsequently, the medium in each well was exchanged to a medium with resazurin (15 µg/mL), resulting in a final concentration of […]. The plates were incubated for 3 h at 37 °C. Finally, 100 µL of the solution from each well of the 48-well plate was transferred into a 96-well plate, and fluorescence was measured (excitation: 540-14, emission: 590-20) using a CLARIOstar Plus plate reader (BMG Labtech).
Background: Alamar Blue is a resazurin reagent that responds to reducing activity.

For series [2], the system named is T. b. brucei. Put plainly: Antitrypanosomal activity, ATPlite assay. It counts as cell-based, Trypanosoma brucei brucei. The following applies: 24 h. The method, then: The parasites used in this study were culture-adapted Trypanosoma brucei brucei of the cell line 449, descendants of the Lister strain 427 [79, 80]. The cells were grown in HMI-9 medium supplemented with 10% FCS, 50 U/mL penicillin, 50 µg/mL streptomycin, and 0.2 µg/mL phleomycin, at 37 °C and 5% CO2. EC50 values for the antitrypanosomal activity were determined using the ATPlite assay as previously described. Briefly, 10 mM compound stocks in DMSO were diluted to 333 µM in HMI-9 medium. This mixture was used to prepare nine further consecutive 1:2 dilutions in HMI-9 medium. Subsequently, 10 µL of diluted compound mixtures were added to 90 µL of media containing 2500 cell/mL in wells of a 96-well plate, in two separate triplicates. The highest DMSO concentration reached in compound plus cells mixture was 0.3%, and parasites treated with DMSO only were used as control. The cells were incubated for 24 h at 37 °C. Subsequently, 50 µL ATPlite 1 step solution (PerkinElmer) was added to each well and luminescence was measured using a CLARIOstar Plus plate reader (BMG Labtech).
(In general: In ATP-based viability assays light output follows the ATP content of the culture.)

Series [3] concerns T. b. brucei. As to conditions: 24 h; cited from earlier work.
[4] abbreviates: Cbz-Phe-Arg-AMC 10 µM, pH 5.5, Km 0.9 µM, read-out: Rhodesain Ki.

Where two headings read alike, the source gives them in different places.

Sequence of human Cathepsin L (hCatL) (P07711 114-333): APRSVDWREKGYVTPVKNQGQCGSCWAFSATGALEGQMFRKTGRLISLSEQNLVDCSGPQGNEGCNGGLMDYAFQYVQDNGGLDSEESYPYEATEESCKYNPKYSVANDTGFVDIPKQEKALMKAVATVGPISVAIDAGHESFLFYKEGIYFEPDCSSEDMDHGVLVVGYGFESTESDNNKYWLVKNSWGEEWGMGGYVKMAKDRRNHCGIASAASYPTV
T1 sequence (Q95PM0 entry or part of it): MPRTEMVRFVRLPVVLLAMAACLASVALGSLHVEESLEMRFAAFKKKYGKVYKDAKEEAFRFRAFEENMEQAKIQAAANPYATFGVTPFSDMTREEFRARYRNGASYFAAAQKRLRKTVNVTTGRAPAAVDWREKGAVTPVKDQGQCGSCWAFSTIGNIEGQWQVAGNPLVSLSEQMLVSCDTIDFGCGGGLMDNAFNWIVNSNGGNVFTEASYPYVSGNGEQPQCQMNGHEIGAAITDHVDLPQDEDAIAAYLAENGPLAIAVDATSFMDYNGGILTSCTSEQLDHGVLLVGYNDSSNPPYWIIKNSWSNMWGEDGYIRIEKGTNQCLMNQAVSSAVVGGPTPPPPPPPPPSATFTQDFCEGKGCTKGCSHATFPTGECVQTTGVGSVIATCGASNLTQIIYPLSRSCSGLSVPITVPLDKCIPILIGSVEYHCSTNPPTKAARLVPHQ

Take `COC(=O)/C=C/[C@H](CCc1ccccc1)NC(=O)[C@H](Cc1ccccc1)NCc1cccc(F)c1` [SPR14, Methyl (S,E)-4-((S)-2-((3-fluorobenzyl)amino)-3-phenylpropanamido)-6-phenylhex-2-enoate]: the Ki (in general, a measure of affinity in units of concentration, obtained from inhibition or displacement) on rhodesain (setting [4]) was 1260 ± 80 nM. Also, the Rhodesain kinac at rhodesain (Cbz-Phe-Arg-AMC 10 µM) turned out to be 0.0043 ± 0.0007 min⁻¹. Also, on rhodesain, the “Rhodesain k2nd” value is 3398 ± 328 M⁻¹ min⁻¹ and the inhibition at 100 µM was above 80%. In series [1], this molecule displayed an inhibition at 100 µM of 35%.
For the molecule `Nc1nc(N)nc(Nc2ccc([As]3SCC(CO)S3)cc2)n1` (centres unmarked) [melarsoprol], the IC50 (usually the concentration that gives 50% inhibition) in the series on L-6 rat myoblast cells was 3300 nM.
For the molecule `COC(=O)/C=C/[C@H](CCc1ccccc1)NC(=O)[C@H](Cc1ccccc1)NC(=O)c1ccc(F)cc1` [SPR34, (S,E)-methyl 4-((S)-2-(4-fluorobenzamido)-3-phenylpropanamido)-6-phenylhex-2-enoate], the “Cytotoxicity towards HEK293 cells: concentration up to which no relevant cytotoxicity was observed” value in the series on HEK293 cells is given as above 70 µM. For the same molecule, the values for the inhibition constant (Ki) (at rhodesain (setting [4]); in series [1]) were 5.8 ± 0.4 nM and 3500 ± 1100 nM, respectively. The molecule further returned a Rhodesain kinac on rhodesain (Cbz-Phe-Arg-AMC 10 µM) of 0.0050 ± 0.0003 min⁻¹. In addition, the “Rhodesain k2nd” value on rhodesain is listed as 870,606 ± 1178 M^−1 min^−1. In addition, the EC50 – broadly, the concentration giving half of the maximal effect – worked out at 15800 ± 2000 nM in the series on T. b. brucei [2] and 16000 ± 2100 nM in the series with T. b. brucei [2] (Trypanosoma brucei). Also, in series [1], the “Selectivity Index (SI) (Ki hCatL/rhodesain)” value is 603.
Consider `COC(=O)/C=C/[C@H](CCc1ccccc1)NC(=O)[C@H](Cc1ccccc1)NCc1ccc(OC)cc1` [SPR12, Methyl (S,E)-4-((S)-2-((4-methoxybenzyl)amino)-3-phenylpropanamido)-6-phenylhex-2-enoate], for which, at rhodesain (setting [4]), the Ki is 4790 ± 1410 nM. Also, the Rhodesain kinac on rhodesain (Cbz-Phe-Arg-AMC 10 µM) was found to be 0.0062 ± 0.0014 min⁻¹. Besides, at rhodesain, the “Rhodesain k2nd” value came to 1314 ± 91 M⁻¹ min⁻¹ and the inhibition at 100 µM is above 80%. In addition, the Ki in series [1] turned out to be 18500 ± 3900 nM.
For the molecule `COC(=O)/C=C/[C@H](CCc1ccccc1)NC(=O)[C@H](Cc1ccccc1)NCc1ccccc1` [SPR10, Methyl (S,E)-4-((S)-2-(benzylamino)-3-phenylpropanamido)-6-phenylhex-2-enoate], on rhodesain (setting [4]), the Ki amounted to 5660 ± 300 nM. The molecule also showed a Rhodesain kinac on rhodesain (Cbz-Phe-Arg-AMC 10 µM) of 0.0096 ± 0.0001 min⁻¹. On rhodesain, the “Rhodesain k2nd” value was found to be 1703 ± 68 M⁻¹ min⁻¹ and the inhibition at 100 µM was above 80%. Besides, the inhibition at 100 µM in series [1] turned out to be 16%.
As for `COC(=O)/C=C/[C@H](CCc1ccccc1)NC(=O)[C@H](Cc1ccccc1)NCc1c(F)cccc1F` [SPR18, Methyl (S,E)-4-((S)-2-((2,6-difluorobenzyl)amino)-3-phenylpropanamido)-6-phenylhex-2-enoate], in the series on HEK293 cells, the “Cytotoxicity towards HEK293 cells: concentration up to which no relevant cytotoxicity was observed” value is above 70 µM. Besides, the inhibition constant Ki at rhodesain (setting [4]) worked out at 210 ± 10 nM. For the same molecule, at rhodesain (Cbz-Phe-Arg-AMC 10 µM), the Rhodesain kinac came to 0.0012 ± 0.0001 min⁻¹. Also, the values for the inhibition at 100 µM (on rhodesain; in series [1]) were above 80% and 26%, respectively. Further, the EC50 with T. b. brucei [2] (Trypanosoma brucei) worked out at 7000 ± 1000 nM.
For the molecule `CSc1ccc(OCc2ncc([N+](=O)[O-])n2C)cc1` [Fexinidazole], the EC50 with T. b. brucei [3] is 2380 ± 880 nM.
As for `COC(=O)/C=C/[C@H](CCc1ccccc1)NC(=O)[C@H](Cc1ccccc1)NCc1ccccc1F` [SPR13, Methyl (S,E)-4-((S)-2-((2-fluorobenzyl)amino)-3-phenylpropanamido)-6-phenylhex-2-enoate], the Ki on rhodesain (setting [4]) was 1580 ± 620 nM. The Rhodesain kinac at rhodesain (Cbz-Phe-Arg-AMC 10 µM) was 0.0038 ± 0.0003 min⁻¹. In addition, the “Rhodesain k2nd” value at rhodesain stood at 2753 ± 885 M⁻¹ min⁻¹. Moreover, the inhibition at 100 µM on rhodesain was above 80%; in series [1] it was 10%.
Take `COC(=O)/C=C/[C@H](CCc1ccccc1)NC(=O)[C@H](Cc1ccccc1)NCc1ccc(F)cc1F` [SPR16, Methyl (S,E)-4-((S)-2-((2,4-difluorobenzyl)amino)-3-phenylpropanamido)-6-phenylhex-2-enoate]: the “Cytotoxicity towards HEK293 cells: concentration up to which no relevant cytotoxicity was observed” value in the series with HEK293 cells was above 70 µM. Besides, at rhodesain (setting [4]), the inhibition constant (Ki) worked out at 220 ± 60 nM. This molecule registered a Rhodesain kinac on rhodesain (Cbz-Phe-Arg-AMC 10 µM) of 0.0014 ± 0.0001 min⁻¹. The inhibition at 100 µM is above 80% on rhodesain and 38% in series [1]. Moreover, the response in the series with T. b. brucei [2] (Trypanosoma brucei) was half-maximal at 8700 ± 3000 nM (EC50).
Turning to `COC(=O)/C=C/[C@H](CCc1ccccc1)NC(=O)[C@H](Cc1ccccc1)NCc1ccc([N+](=O)[O-])cc1` [SPR11, Methyl (S,E)-4-((S)-2-((4-nitrobenzyl)amino)-3-phenylpropanamido)-6-phenylhex-2-enoate], the inhibition constant Ki was determined as 430 ± 60 nM at rhodesain (setting [4]) and 36900 ± 2200 nM in series [1]. For the same molecule, the Rhodesain kinac at rhodesain (Cbz-Phe-Arg-AMC 10 µM) came out at 0.0023 ± 0.0001 min⁻¹. Moreover, at rhodesain, the inhibition at 100 µM was above 80%.
On to `COC(=O)C=CC(CCc1ccccc1)NC(=O)C(Cc1ccccc1)NCc1ccc(C(F)(F)F)cc1` (centres unmarked) [SPR19], for which, on rhodesain, affinity was put at a Ki of 410 ± 70 nM and the inhibition at 100 µM is above 80%. Further, the Rhodesain kinac on rhodesain (Cbz-Phe-Arg-AMC 10 µM) was determined as 0.0023 ± 0.0002 min⁻¹. Also, the inhibition at 100 µM in series [1] worked out at 45%.
Consider `CC(C)C[C@H](NC(=O)[C@H]1O[C@@H]1C(=O)O)C(=O)NCCCCN=C(N)N` [E-64, reference compound], for which the Ki at rhodesain (setting [4]) was found to be 33 ± 7 nM. The molecule also returned a Rhodesain kinac on rhodesain (Cbz-Phe-Arg-AMC 10 µM) of 0.0085 ± 0.0008 min⁻¹. Also, the “Rhodesain k2nd” value on rhodesain was 263000 ± 30000 M⁻¹ min⁻¹.
With `COC(=O)/C=C/[C@H](CCc1ccccc1)NC(=O)[C@H](Cc1ccccc1)NCc1cc(F)ccc1F` [SPR17, Methyl (S,E)-4-((S)-2-((2,5-difluorobenzyl)amino)-3-phenylpropanamido)-6-phenylhex-2-enoate], the Ki at rhodesain (setting [4]) came out at 460 ± 160 nM. Moreover, the Rhodesain kinac on rhodesain (Cbz-Phe-Arg-AMC 10 µM) is 0.0024 ± 0.0006 min⁻¹. Further, the inhibition at 100 µM at rhodesain is above 80%; in series [1] it was 12%.
On to `COC(=O)/C=C/[C@H](CCc1ccccc1)NC(=O)[C@H](Cc1ccccc1)NCc1ccc(F)cc1` [SPR15, Methyl (S,E)-4-((S)-2-((4-fluorobenzyl)amino)-3-phenylpropanamido)-6-phenylhex-2-enoate], for which the Ki on rhodesain (setting [4]) amounted to 2640 ± 130 nM. At rhodesain (Cbz-Phe-Arg-AMC 10 µM), this molecule displayed a Rhodesain kinac of 0.0041 ± 0.0002 min⁻¹. The “Rhodesain k2nd” value at rhodesain amounted to 1552 ± 19 M⁻¹ min⁻¹. Besides, the inhibition at 100 µM on rhodesain was above 80%; in series [1], 10%.
